Laboratory results taken from patent US20220370416A1, “COMPOUNDS AND METHODS FOR TARGETED DEGRADATION OF KRAS” (Arvinas Operations, Inc., priority 2020, published 2022).

What was measured:
[1] = system: pErk; assay: Erk signaling (pErk, total Erk) by immunoblot in SW1573 cells; format: cell-based; settings: SW1573, 2.5 μM
Description: (§1) Signaling kinetics were monitored during a 24 hour time course in MIA PaCa2, NCI-H23, and SW1573 cells treated with 2.5 μM LC-2. Modulation of Erk signaling by both MRTX and LC-2 occurs within 6 hours in MIA PaCa-2 and NCI-H23 cells (FIGS. 10A, 10B, and 11). pErk was suppressed by both compounds at 6 and 24 hours in each cell lines. […] Total Erk was increased in LC-2 treated cells compared to DMSO at all time points indicating the initiation of a positive feedback loop upon KRAS^G12C degradation and pErk inhibition.
(§2) NCI-H2030 (CRL-5914), MIA PaCa-2 (CRL-1420), NCI-H23 (CRL-5800), NCI-H358 (CRL-5807), and HCT-116 (CCL-247) cells were obtained from ATCC, expanded immediately, and frozen down. Vials were thawed and used within 20 passages. SW1573 cells were a gift from Arvinas and were handled in the same manner. NCI-H2030, NCI-H23, and NCI-H358 were cultured in RPMI (ATCC30-2001) supplemented with 10% FBS (Biological Industries; cat. no. S1480) and 1% Penicillin-Streptomycin (ThermoFisher; cat. no. 15140122). HCT-116 cells were maintained in high glucose DMEM (ThermoFisher; cat. no. 11965084) supplemented as above. MIA PaCa-2 cells were cultured in high glucose DMEM supplemented with 10% FBS, 2.5% horse serum (ThermoFisher; cat. no. 26050-088; lot 2109875), and 1% Penicillin-Streptomycin. SW1573 cells were maintained in DMEM/F12 Nutrient Mix with GlutaMAX supplement (ThermoFisher; cat. no. 10565018) with 10% FBS and 1% Penicillin-Streptomycin added. DPBS (ThermoFisher; cat. no. 14190250) was used to wash cells and 0.25% Trypsin-EDTA (ThermoFisher; cat. no. […]) was used to detach cells for passaging. […] The VHL ligand was generously provided by Arvinas. […]
(§3) Cell lysates were clarified at 21000×g for 15 mins at 4° C. Protein levels were quantified using a 50:1 mixture of bicinchoninic acid solution (Millipore Sigma; cat. no. B9643) and 4% (w/v) copper(II) sulfate solution (Millipore Sigma; cat. no. C2284) incubated at 37° C. for 30 mins. Absorbance values at 560 nm were read on an EnVision 2101 Multilabel Reader (PerkinElmer). […]

[2] = as above; format: cell-based; settings: SW1573, 2.5 μM, all time points
Description: as §1, §2, §3

C=C(F)C(=O)N1CCN(c2nc(OC[C@@H]3CCCN3CCCOCCC(=O)N[C@H](C(=O)N3C[C@H](O)C[C@H]3C(=O)NCc3ccc(-c4scnc4C)cc3)C(C)(C)C)nc3c2CCN(c2cccc4cccc(Cl)c24)C3)C[C@@H]1CC#N [LC-2, (2S,4R)-1-((S)-2-(3-(3-((S)-2-(((7-(8-chloronaphthalen-1-yl)-4-((S)-3-(cyanomethyl)-4-(2-fluoroacryloyl)piperazin-1-yl)-5,6,7,8-tetrahydropyrido[3,4-d]pyrimidin-2-yl)oxy)methyl)pyrrolidin-1-yl)propoxy)propanamido)-3,3-dimethylbutanoyl)-4-hydroxy-N-(4-(4-methylthiazol-5-yl)benzyl)pyrrolidine-2-carboxamide]
phosphorylated Erk over time ([1]; 24 hour time course): inhibited by 2.5 μM LC-2 between 1 and 4 hours, however pErk levels rebounded between 8 and 24 hours | pErk levels versus DMSO ([1]; 24 hours): significantly lower | total Erk versus DMSO [2]: increased
